In patent publication US20230339981A1, “KRAS G12D MODULATING COMPOUNDS” (priority 2022, published 2023) one finds EC50 and IC50 data, which are given here for 14 compounds.

Some results are limits rather than exact numbers.

For one assay, the system named is GP2D (KRAS G12D) cells. The experiment in a line: 2D cell viability assay (CellTiter-Glo). The format is cell-based. To be noted: GP2d, 96 h, 4 days. The gist of the method:
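Viability was read by CellTiter-Glo after 4 days at 37 °C of 2D culture of KRAS G12D GP2D cells (1000/well, RPMI, 10% FBS) on pre-spotted threefold compound dilutions. EC50 was fitted with a sigmoidal dose-response model as the point of half-maximal luminescence loss.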

Another assay deals with AsPC-1 (KRAS G12D) cells. The assay is described as follows: 3D cell viability assay (spheroids, CellTiter-Glo 3D). Format: cell-based. To be noted: Homo sapiens, ASPC1, 96 h, AsPC-1 cells, 3D spheroids, 4 days. As to the method:
Example C. 3D Cell Viability Assay
Compounds were tested in a 384-well format for their ability to inhibit the viability of AsPC-1 (KRAS G12D) cells in 3D assays. On day 0, 1000 cells/well (80 μL volume per well) in DMEM with 10% FBS, and Penicillin-Streptomycin-Glutamine were plated in 384-well Ultra-Low Attachment Spheroid Microplates (Corning, Catalog #3830) on the BioTEK EL406 liquid dispenser with a 5 μL dispensing cassette (BioTek 7170011). The plates were incubated at 37° C., 5% CO2 for 3 days to allow spheroid formation. On day 3, compounds were serially diluted (1:3) in DMSO. The Biomek FX was used to add 400 nL of test molecule per well. The plates were incubated at 37° C., 5% CO2 for 4 days before addition of CellTiter-Glo 3D (Promega, Catalog #9683) reagent and measurement of luminescence signal. EC50 values were defined as the compound concentration that causes a 50% decrease in luminescence signal and were calculated using a sigmoidal dose-response model to generate curve fits.

In a further assay the target is GDP-loaded KRAS G12D (Homo sapiens (Human), UniProt P01116, G12D). The assay is described as follows: KRAS G12D (GDP) biochemical assay (TR-FRET probe displacement). The format is binding. To be noted: 2 hours. The gist of the method: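 TR-FRET probe displacement: 1:3 DMSO serial dilutions pre-incubated 30 min with GDP-bound KRAS G12D, followed by Eu-streptavidin/probe for 2 h at room temperature (Hepes pH 7.4, NaCl, MgCl2, Tween-20 buffer). IC50 defined as concentration halving TR-FRET ratio, from sigmoidal dose-response fit.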
GDP-loaded KRAS G12D, sequence (P01116-2 other isoform, or with tags, fused parts or gaps G12D): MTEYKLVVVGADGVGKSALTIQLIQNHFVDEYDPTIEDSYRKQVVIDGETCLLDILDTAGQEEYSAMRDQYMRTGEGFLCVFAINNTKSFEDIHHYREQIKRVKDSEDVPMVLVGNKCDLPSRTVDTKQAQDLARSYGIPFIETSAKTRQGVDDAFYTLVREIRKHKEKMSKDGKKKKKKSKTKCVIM

On to `Oc1cc(-c2nc3c4c(nc(OC[C@@]56CCCN5C[C@H](F)C6)nc4c2F)N2C[C@H]4CC[C@H](N4)[C@H]2CO3)c2c(F)c(F)ccc2c1` [Example 1, 5,6-difluoro-4-((5aS,6S,9R)-1-fluoro-12-(((2R,7aS)-2-fluorotetrahydro-1H-pyrrolizin-7a(5H)-yl)methoxy)-5a,6,7,8,9,10-hexahydro-5H-4-oxa-3,10a,11,13,14-pentaaza-6,9-methanonaphtho[1,8-ab]heptalen-2-yl)naphthalen-2-ol], for which the results for the concentration for a half-maximal effect (EC50) with GP2D (KRAS G12D) cells and with AsPC-1 (KRAS G12D) cells were 19 nM and 170 nM, respectively. On GDP-loaded KRAS G12D, this compound yielded an IC50 of 0.5 nM.

In the case of `C#Cc1c(F)ccc2cc(O)cc(-c3nc4c5c(nc(OC[C@@]67CCCN6C[C@H](F)C7)nc5c3F)N3C[C@H]5CC[C@H](N5)[C@H]3CO4)c12` [Example 2, 5-ethynyl-6-fluoro-4-((5aS,6S,9R)-1-fluoro-12-(((2R,7aS)-2-fluorotetrahydro-1H-pyrrolizin-7a(5H)-yl)methoxy)-5a,6,7,8,9,1O-hexahydro-5H-4-oxa-3,10a,11,13,14-pentaaza-6,9-methanonaphtho[1,8-ab]heptalen-2-yl)naphthalen-2-ol], the EC50 in the assay on GP2D (KRAS G12D) cells is 6 nM; in the assay with AsPC-1 (KRAS G12D) cells, 42 nM. This compound came in with an IC50 at GDP-loaded KRAS G12D of 0.2 nM.

`Oc1cc(-c2nc3c4c(nc(OC[C@@]56CCCN5C[C@H](F)C6)nc4c2F)N2C[C@H]4CC[C@H](N4)[C@H]2CO3)c2c(OC(F)(F)F)cccc2c1` [Example 3, 4-((5aS,6S,9R)-1-fluoro-12-(((2R,7aS)-2-fluorotetrahydro-1H-pyrrolizin-7a(5H)-yl)methoxy)-5a,6,7,8,9,10-hexahydro-5H-4-oxa-3,10a,11,13,14-pentaaza-6,9-methanonaphtho[1,8-ab]heptalen-2-yl)-5-(trifluoromethoxy)naphthalen-2-ol]: the EC50 was found to be 24 nM in the assay with GP2D (KRAS G12D) cells and 160 nM with AsPC-1 (KRAS G12D) cells. Further, the IC50 on GDP-loaded KRAS G12D came to 2 nM.

As to `C#Cc1c(F)ccc2cccc(-c3nc4c5c(nc(OC[C@@]67CCCN6C[C@H](F)C7)nc5c3F)N3C[C@H]5CC[C@H](N5)[C@H]3CO4)c12` [Example 4, (5aS,6S,9R)-2-(8-ethynyl-7-fluoronaphthalen-1-yl)-1-fluoro-12-(((2R,7aS)-2-fluorotetrahydro-1H-pyrrolizin-7a(5H)-yl)methoxy)-5a,6,7,8,9,10-hexahydro-5H-4-oxa-3,10a,11,13,14-pentaaza-6,9-methanonaphtho[1,8-ab]heptalene], the EC50 in the assay with GP2D (KRAS G12D) cells was found to be 45 nM; in the assay on AsPC-1 (KRAS G12D) cells, 92 nM. The compound also registered an IC50 on GDP-loaded KRAS G12D of 4 nM.

On to `Oc1cc(-c2nc3c4c(nc(OC[C@@]56CCCN5C[C@H](F)C6)nc4c2F)N2C[C@H]4CC[C@H](N4)[C@H]2CO3)c2c(Cl)c(F)ccc2c1` [Example 9, 5-chloro-6-fluoro-4-((5aS,6S,9R)-1-fluoro-12-(((2R,7aS)-2-fluorotetrahydro-1H-pyrrolizin-7a(5H)-yl)methoxy)-5a,6,7,8,9,10-hexahydro-5H-4-oxa-3,10a,11,13,14-pentaaza-6,9-methanonaphtho[1,8-ab]heptalen-2-yl)naphthalen-2-ol], for which the values for the EC50 in the assay on GP2D (KRAS G12D) cells and in the assay on AsPC-1 (KRAS G12D) cells were 20 nM and 77 nM, respectively. At GDP-loaded KRAS G12D, this compound yielded an IC50 of 0.5 nM.

For the compound `C#Cc1c(F)ccc2cc(O)cc(-c3nc4c5c(nc(OC[C@]67CC(=C)CN6C[C@H](F)C7)nc5c3F)N3C[C@H]5CC[C@H](N5)[C@H]3CO4)c12` [Example 13, 5-ethynyl-6-fluoro-4-((5aS,6S,9R)-1-fluoro-12-(((2R,7aR)-2-fluoro-6-methylenetetrahydro-1H-pyrrolizin-7a(5H)-yl)methoxy)-5a,6,7,8,9,10-hexahydro-5H-4-oxa-3,10a,11,13,14-pentaaza-6,9-methanonaphtho[1,8-ab]heptalen-2-yl)naphthalen-2-ol], the EC50 was 2 nM with GP2D (KRAS G12D) cells and 17 nM with AsPC-1 (KRAS G12D) cells. Also, the IC50 on GDP-loaded KRAS G12D amounted to 0.4 nM.

Take `Oc1cc(-c2nc3c4c(nc(OC[C@@]56CCCN5C[C@H](F)C6)nc4c2F)N2C[C@H]4CC[C@H](N4)[C@H]2CO3)c2c(Cl)cccc2c1` [Example 17, 5-chloro-4-((5aS,6S,9R)-1-fluoro-12-(((2R,7aS)-2-fluorotetrahydro-1H-pyrrolizin-7a(5H)-yl)methoxy)-5a,6,7,8,9,10-hexahydro-5H-4-oxa-3,10a,11,13,14-pentaaza-6,9-methanonaphtho[1,8-ab]heptalen-2-yl)naphthalen-2-ol]: the EC50 in the assay on GP2D (KRAS G12D) cells was 49 nM; in the assay on AsPC-1 (KRAS G12D) cells it was 180 nM. At GDP-loaded KRAS G12D, the IC50 is 0.4 nM.

As to `Oc1cc(-c2nc3c4c(nc(OC[C@@]56CCCN5C[C@H](F)C6)nc4c2F)N2C[C@H]4CC[C@H](N4)[C@H]2CO3)c2ccccc2c1` [Example 20, 4-((5aS,6S,9R)-1-fluoro-12-(((2R,7aS)-2-fluorotetrahydro-1H-pyrrolizin-7a(5H)-yl)methoxy)-5a,6,7,8,9,10-hexahydro-5H-4-oxa-3,10a,11,13,14-pentaaza-6,9-methanonaphtho[1,8-ab]heptalen-2-yl)naphthalen-2-ol], the results for the EC50 in the assay with GP2D (KRAS G12D) cells and with AsPC-1 (KRAS G12D) cells were 210 nM and over 1000 nM, respectively. The same compound gave an IC50 on GDP-loaded KRAS G12D of 7 nM.

As to `C#Cc1c(F)ccc2cc(O)cc(-c3nc4c5c(nc(OC[C@@]67CCCN6C[C@H](F)C7)nc5c3F)N3C[C@H]5CC[C@H](N5)[C@H]3CC4)c12` [Example 22, 5-ethynyl-6-fluoro-4-((5aR,6S,9R)-1-fluoro-12-(((2R,7aS)-2-fluorotetrahydro-1H-pyrrolizin-7a(5H)-yl)methoxy)-4,5,5a,6,7,8,9,10-octahydro-3,10a,11,13,14-pentaaza-6,9-methanonaphtho[1,8-ab]heptalen-2-yl)naphthalen-2-ol], the results for the EC50 in the assay with GP2D (KRAS G12D) cells and with AsPC-1 (KRAS G12D) cells were 0.6 nM and 2 nM, respectively. This compound also came in with an IC50 at GDP-loaded KRAS G12D of 0.1 nM.

On to `C#Cc1c(F)ccc2cccc(-c3nc4c5c(nc(OC[C@@]67CCCN6C[C@H](F)C7)nc5c3F)N3C[C@H]5CC[C@H](N5)[C@H]3CC4)c12` [Example 23, (5aR,6S,9R)-2-(8-ethynyl-7-fluoronaphthalen-1-yl)-1-fluoro-12-(((2R,7aS)-2-fluorotetrahydro-1H-pyrrolizin-7a(5H)-yl)methoxy)-4,5,5a,6,7,8,9,10-octahydro-3,10a,11,13,14-pentaaza-6,9-methanonaphtho[1,8-ab]heptalene], for which the values for the EC50 with GP2D (KRAS G12D) cells and in the assay on AsPC-1 (KRAS G12D) cells were 9 nM and 31 nM, respectively. The compound further returned an IC50 on GDP-loaded KRAS G12D of 1 nM.

Take `Oc1cc(-c2nc3c4c(nc(OC[C@@]56CCCN5C[C@H](F)C6)nc4c2F)N2C[C@H]4CC[C@H](N4)[C@H]2CC3)c2ccccc2c1` [Example 24, 4-((5aR,6S,9R)-1-fluoro-12-(((2R,7aS)-2-fluorotetrahydro-1H-pyrrolizin-7a(5H)-yl)methoxy)-4,5,5a,6,7,8,9,10-octahydro-3,10a,11,13,14-pentaaza-6,9-methanonaphtho[1,8-ab]heptalen-2-yl)naphthalen-2-ol]: the EC50 is 17 nM with GP2D (KRAS G12D) cells and 190 nM in the assay on AsPC-1 (KRAS G12D) cells. The same compound registered an IC50 at GDP-loaded KRAS G12D of 1 nM.

As for `Oc1cc(-c2nc3c4c(nc(OC[C@@]56CCCN5C[C@H](F)C6)nc4c2F)N2C[C@H]4CC[C@H](N4)[C@H]2CC3)c2c(F)c(F)ccc2c1` [Example 27, 5,6-difluoro-4-((5aR,6S,9R)-1-fluoro-12-(((2R,7aS)-2-fluorotetrahydro-1H-pyrrolizin-7a(5H)-yl)methoxy)-4,5,5a,6,7,8,9,10-octahydro-3,10a,11,13,14-pentaaza-6,9-methanonaphtho[1,8-ab]heptalen-2-yl)naphthalen-2-ol], the values for the EC50 with GP2D (KRAS G12D) cells and in the assay with AsPC-1 (KRAS G12D) cells were 4 nM and 29 nM, respectively. At GDP-loaded KRAS G12D, this compound came in with an IC50 of 0.7 nM.

Regarding `C#Cc1c(F)c(F)cc2cc(O)cc(-c3nc4c5c(nc(OC[C@@]67CCCN6C[C@H](F)C7)nc5c3F)N3C[C@H]5CC[C@H](N5)[C@H]3CO4)c12` [Example 30, 5-ethynyl-6,7-difluoro-4-((5aS,6S,9R)-1-fluoro-12-(((2R,7aS)-2-fluorotetrahydro-1H-pyrrolizin-7a(5H)-yl)methoxy)-5a,6,7,8,9,10-hexahydro-5H-4-oxa-3,10a,11,13,14-pentaaza-6,9-methanonaphtho[1,8-ab]heptalen-2-yl)naphthalen-2-ol], the EC50 with GP2D (KRAS G12D) cells is 11 nM; with AsPC-1 (KRAS G12D) cells, 260 nM. This compound showed an IC50 at GDP-loaded KRAS G12D of 0.2 nM.

For the compound `C#Cc1c(F)ccc2cc(O)cc(-c3nc4c5c(nc(OCC6(CN7CCCOCC7)CC6)nc5c3F)N3C[C@H]5CC[C@H](N5)[C@H]3CO4)c12` [Example 35, 4-((5aS,6S,9R)-12-((1-((1,4-oxazepan-4-yl)methyl)cyclopropyl)methoxy)-1-fluoro-5a,6,7,8,9,10-hexahydro-5H-4-oxa-3,10a,11,13,14-pentaaza-6,9-methanonaphtho[1,8-ab]heptalen-2-yl)-5-ethynyl-6-fluoronaphthalen-2-ol], the figures for the EC50 in the assay with GP2D (KRAS G12D) cells and with AsPC-1 (KRAS G12D) cells were 6 nM and 17 nM, respectively. The compound also returned an IC50 at GDP-loaded KRAS G12D of 0.3 nM.

A word on the EC50: it is the midpoint of the concentration-response curve. A low value points to a more potent agent. The term IC50 denotes the concentration that inhibits the measured activity by half. A low value points to greater potency in that assay.
